Test results reported in patent US20110039762A1, “TARGETED ANTIMICROBIAL MOIETIES” (C3 JIAN, INC., priority 2009, published 2011).
Entries after “also recorded” stand apart in the source; their conditions may differ. Ends that are not written are not given here.

Tests used:
S. mutans = assay: Kill or inhibit growth/proliferation; morphology, biofilm and growth disruption (Tables 5, 6); type: cell-based, Streptococcus mutans; set-up: key: A: Peptide aggregates; B: Less hyphal formation; Clumps; Diffuse clumps and small polyps; F: Diffuse growth; H: Thin; I: Growth inhibition; Microcolony formation; Rippled; Small polyps; Thick; W: Halo formation on top, microlonies on bottom; further: test concentration or dose not given here
[1] = system: microorganisms (e.g., bacteria, yeasts, fungi); assay: Targeting peptide binding to target microorganisms (Table 3); details: preferably 1x PBS; for Target(s) (microorganisms bound by the targeting peptide): peptide binding in aqueous buffers varied by peptide solubility
microorganisms = assay: Peptides having multiple activities (targeting/binding, antimicrobial, growth or phenotype altering)
Description: In certain embodiments, peptides described herein can have multiple activities. Thus for example, a peptide can have both binding/targeting activity and antimicrobial activity. Such peptides can be used, e.g., in a chimeric construct, for any or all of these properties. Thus, for example, a peptide designated “B” in Table 8 can be used as a targeting peptide. If it is also designated G or M it can also be used for antimicrobial activity.

B. subtilis = assay: Kill or inhibit growth/proliferation; morphology, biofilm and growth disruption (Tables 5, 6); type: cell-based, Bacillus subtilis; set-up: key: A: Peptide aggregates; B: Less hyphal formation; Clumps; Diffuse clumps and small polyps; F: Diffuse growth; H: Thin; I: Growth inhibition; Microcolony formation; Rippled; Small polyps; Thick; W: Halo formation on top, microlonies on bottom; further: test concentration or dose not given here
M. luteus = assay: as above; type: cell-based, Micrococcus luteus; set-up: key: A: Peptide aggregates; B: Less hyphal formation; Clumps; Diffuse clumps and small polyps; F: Diffuse growth; H: Thin; I: Growth inhibition; Microcolony formation; Rippled; Small polyps; Thick; W: Halo formation on top, microlonies on bottom; further: test concentration or dose not given here
MRSA = assay: as above; type: cell-based, Methicillin-resistant Staphylococcus aureus; set-up: key: A: Peptide aggregates; B: Less hyphal formation; Clumps; Diffuse clumps and small polyps; F: Diffuse growth; H: Thin; I: Growth inhibition; Microcolony formation; Rippled; Small polyps; Thick; W: Halo formation on top, microlonies on bottom
S. epidermidis = assay: as above; type: cell-based, Staphylococcus epidermidis; set-up: key: A: Peptide aggregates; B: Less hyphal formation; Clumps; Diffuse clumps and small polyps; F: Diffuse growth; H: Thin; I: Growth inhibition; Microcolony formation; Rippled; Small polyps; Thick; W: Halo formation on top, microlonies on bottom
S. pneumoniae = assay: as above; type: cell-based, Streptococcus pneumoniae; set-up: key: A: Peptide aggregates; B: Less hyphal formation; Clumps; Diffuse clumps and small polyps; F: Diffuse growth; H: Thin; I: Growth inhibition; Microcolony formation; Rippled; Small polyps; Thick; W: Halo formation on top, microlonies on bottom; further: test concentration or dose not given here
C. jejuni = assay: as above; type: cell-based, Campylobacter jejuni; set-up: key: A: Peptide aggregates; B: Less hyphal formation; Clumps; Diffuse clumps and small polyps; F: Diffuse growth; H: Thin; I: Growth inhibition; Microcolony formation; Rippled; Small polyps; Thick; W: Halo formation on top, microlonies on bottom; further: test concentration or dose not given here
C. albicans = assay: as above; type: cell-based, Candida albicans; set-up: key: A: Peptide aggregates; B: Less hyphal formation; Clumps; Diffuse clumps and small polyps; F: Diffuse growth; H: Thin; I: Growth inhibition; Microcolony formation; Rippled; Small polyps; Thick; W: Halo formation on top, microlonies on bottom
C. jeikeium = assay: as above; type: cell-based, Corynebacterium jeikeium; set-up: key: A: Peptide aggregates; B: Less hyphal formation; Clumps; Diffuse clumps and small polyps; F: Diffuse growth; H: Thin; I: Growth inhibition; Microcolony formation; Rippled; Small polyps; Thick; W: Halo formation on top, microlonies on bottom; further: test concentration or dose not given here
E. faecalis = assay: as above; type: cell-based, Enterococcus faecalis; set-up: key: A: Peptide aggregates; B: Less hyphal formation; Clumps; Diffuse clumps and small polyps; F: Diffuse growth; H: Thin; I: Growth inhibition; Microcolony formation; Rippled; Small polyps; Thick; W: Halo formation on top, microlonies on bottom; further: test concentration or dose not given here
E. coli = assay: as above; type: cell-based, Escherichia coli; set-up: key: A: Peptide aggregates; B: Less hyphal formation; Clumps; Diffuse clumps and small polyps; F: Diffuse growth; H: Thin; I: Growth inhibition; Microcolony formation; Rippled; Small polyps; Thick; W: Halo formation on top, microlonies on bottom
[2] = microorganism(s) the targeting peptide binds, peptide binding conducted in aqueous buffers varied by peptide solubility
Wherever Organism, effect (morphology, biofilm and growth disruption) is given: test concentration or dose not given here.
Wherever Organism, effect is given: test concentration or dose not given here.

| Substance | Target(s) (microorganisms bound by the targeting peptide) [1] | Activities (microorganisms) | Organism, effect (B. subtilis) | Organism, effect (MRSA) | Organism, effect (S. epidermidis) | Organism, effect (S. pneumoniae) | Organism, effect (C. jejuni) | Organism, effect (C. albicans) | Organism, effect (E. faecalis) | Organism, effect (E. coli) | further results |
| --- | --- | --- | --- | --- | --- | --- | --- | --- | --- | --- | --- |
| GNVHPESDFHNLIQFIKTFLYFTIFFKYFL [PF-C290] | A. naeslundii; also recorded: F. nucleatum; also recorded: P. gingivalis; also recorded: S. mutans; also recorded: T. denticola | G B | – | – | – | – | – | – | – | – | Organism, effect (morphology, biofilm and growth disruption) (S. mutans): S. mutans (F) |
| HCVIGNVVDIANLLKRRAVYRDIADVIKMR [PF-071] | – | G B | B. subtilis (D) | MRSA (C) | S. epidermidis (R) | S. pneumoniae (A) | C. jejuni (A) | C. albicans (B) | – | – | Organism, effect (M. luteus): M. luteus (R); Target(s) ([1]; microorganism the targeting peptide binds, binding in aqueous buffers varied by peptide solubility): S. epidermidis and E. coli and P. aeruginosa and C. albicans and MRSA and S. pneumoniae and E. faecalis |
| KKFKIFVIINWFYHKYIILNFEENF [PF-C085] | A. naeslundii; also recorded: F. nucleatum; also recorded: P. gingivalis; also recorded: S. mutans; also recorded: T. denticola | G B | – | – | – | – | – | – | – | – | Organism, effect (morphology, biofilm and growth disruption) (S. mutans): S. mutans (F) |
| PF-057: peptide having multiple activities (chain 1 TMIVISIPRFEEYMKARHKKWM; chain 2 TMIVISIPRFEEYMKARHKKWM; Peptide with targeting and/or antimicrobial activity) | – | G B | – | MRSA (M) | S. epidermidis (D) | S. pneumoniae (R) | C. jejuni (D) | C. albicans (A) | E. faecalis (A) | E. coli (M) | Organism, effect (C. jeikeium): C. jeikeium (A); Organism, effect (M. luteus): M. luteus (C) |
| PF-175: peptide having multiple activities (RRRPAGQRPEKASQAMIAA; Peptide with targeting and/or antimicrobial activity) | – | G B | B. subtilis (D) | – | – | S. pneumoniae (A) | C. jejuni (M) | C. albicans (B) | – | – | Organism, effect (M. luteus): M. luteus (S); Target(s) ([1]; microorganism(s) the targeting peptide binds, binding in aqueous buffers depending on peptide solubility): S. epidermidis; also recorded: E. faecalis |
| PF-426: peptide having multiple activities (MLQKYTQMISVTKCIITKNKKTQENVDAYN; Peptide with targeting and/or antimicrobial activity) | – | G B | – | MRSA (D) | S. epidermidis (D) | S. pneumoniae (D) | C. jejuni (D) | C. albicans (A) | E. faecalis (D) | E. coli (C) | Target(s) [1, 2]: S. epidermidis and E. coli and P. aeruginosa and C. albicans and MRSA and S. pneumoniae and E. faecalis and C. jeikeium |
| PF-526: peptide having multiple activities (chain 1 VLLLFIFQPFQKQLL-NH2; chain 2 VLLLFIFQPFQKQLL-NH2) | – | G B | – | MRSA (C) | S. epidermidis (C) | S. pneumoniae (R) | – | C. albicans (C) | – | E. coli (R) | – |
| PF-528: peptide having multiple activities (chain 1 LVDVVVLIRRHLPKSCS-NH2; chain 2 LVDVVVLIRRHLPKSCS-NH2; cysteine pairing not given here) | – | G B | – | MRSA (H) | S. epidermidis (H) | S. pneumoniae (R) | – | C. albicans (C) | – | E. coli (H) | Target(s) [1, 2]: S. epidermidis and P. aeruginosa and C. albicans and MRSA and S. pneumoniae and E. faecalis |
| PF-632: peptide having multiple activities (chain 1 TTIQGVASLEKHGFRYTIIYPTRI; chain 2 TTIQGVASLEKHGFRYTIIYPTRI; Peptide with targeting and/or antimicrobial activity) | S. epidermidis and P. aeruginosa and C. albicans and MRSA and S. pneumoniae and E. faecalis and C. jeikeium | G B | B. subtilis (H) | MRSA (D) | S. epidermidis (D) | S. pneumoniae (M) | – | C. albicans (B) | E. faecalis (D) | – | Organism, effect (C. jeikeium): C. jeikeium (D) |
| PF-636: peptide having multiple activities (chain 1 LVRLA; chain 2 LVRLA; Peptide with targeting and/or antimicrobial activity) | S. epidermidis and C. albicans and MRSA and S. pneumoniae and E. faecalis | G B | B. subtilis (H) | – | – | S. pneumoniae (H) | – | C. albicans (B) | E. faecalis (H) | – | – |
| PF-668 (chain 1 TNAESMALAFRGRVHMSVNIAGLT; chain 2 TNAESMALAFRGRVHMSVNIAGLT; Peptide with targeting and/or antimicrobial activity) | Mycobacteria spp | – | – | – | – | – | – | – | – | – | Organism, effect (morphology, biofilm and growth disruption) (B. subtilis): B. subtilis (A); Organism, effect (morphology, biofilm and growth disruption) (C. jeikeium): C. jeikeium (D); Organism, effect (morphology, biofilm and growth disruption) (E. faecalis): E. faecalis (D); Organism, effect (morphology, biofilm and growth disruption) (MRSA): MRSA (R); Organism, effect (morphology, biofilm and growth disruption) (S. epidermidis): S. epidermidis (M); Organism, effect (morphology, biofilm and growth disruption) (S. pneumoniae): S. pneumoniae (M); Organism, effect (morphology, biofilm and growth disruption) (C. albicans): C. albicans (A) |
| PF-686: peptide having multiple activities (chain 1 LAVLMGYIGYRGWSGKRHINRQ; chain 2 LAVLMGYIGYRGWSGKRHINRQ; Peptide with targeting and/or antimicrobial activity) | M. smegmatis | G B | – | – | – | – | – | – | – | – | Organism, effect (morphology, biofilm and growth disruption) (B. subtilis): B. subtilis (I); Organism, effect (morphology, biofilm and growth disruption) (E. faecalis): E. faecalis (R); Organism, effect (morphology, biofilm and growth disruption) (MRSA): MRSA (M); Organism, effect (morphology, biofilm and growth disruption) (S. epidermidis): S. epidermidis (H); Organism, effect (morphology, biofilm and growth disruption) (S. pneumoniae): S. pneumoniae (A); Organism, effect (morphology, biofilm and growth disruption) (C. albicans): C. albicans (B) |
| PF-C057: peptide having multiple activities (YFWWYWVQDCIPYKNNEVWLELSNNMK; Peptide with targeting and/or antimicrobial activity) | A. naeslundii; also recorded: F. nucleatum; also recorded: P. gingivalis; also recorded: S. mutans | G B | – | – | – | – | – | – | – | – | Organism, effect (morphology, biofilm and growth disruption) (S. mutans): S. mutans (I) |
